US9700550B1, “Decreasing expression level of apoptosis-related genes by treating a human subject with a nitroxide” (priority 2016, dated 2017)

How the values were obtained:
Format in all cases: in vivo
Pdcd5 = test: Gene expression in cardiac tissue of Tempol-fed mice, chip-based microarray
Protocol: (§1) To assess the effects of Tempol on gene expression, Tempol was administered to experimental mice at a dose of 5 mg/g of food from 14 months to 31 months after birth. Mice receiving the same food without the addition of Tempol were used as a negative control. At the age of 31 months, the experimental animals were sacrificed and the hearts were surgically removed. The expression of a broad spectrum of genes in the cardiac tissue was assessed using chip-based microarray technology. Such chips are well known in the art and are widely used to assess gene expression.

Casp12 = test: as above
Protocol: as §1

Casp2 = test: as above
Protocol: as §1

Casp3 = test: as above
Protocol: as §1

Bak1 = test: as above
Protocol: as §1

[1] = test system: Trp53inp1 (mouse gene of Tp53inp1); test: as above
Protocol: as §1

Tradd = test: as above
Protocol: as §1

[2] = test system: Bak1, Pdcd5, Casp2, Tradd, Trp53inp1 (mouse gene of Tp53inp1), Casp3, or Casp12; test: Serum level of apoptosis pathway genes in a human subject after Tempol treatment; conditions: 1500 mg Tempol per day for 180 days
Protocol: (§2) A 70-kilogram human subject is identified for increased expression level of Bak1, Pdcd5, Casp2, Tradd, Trp53inp1 (mouse gene of Tp53inp1), Casp3, or Casp12. The human subject is administered a dose of 1500 mg of Tempol per day for 180 days. This may be administered in a single dose, or may be administered as a number of smaller doses over a 24-hour period: for example, three 500-mg doses at eight-hour intervals. Following treatment, the serum level of Bak1, Pdcd5, Casp2, Tradd, Trp53inp1 (mouse gene of Tp53inp1), Casp3, or Casp12, is reduced.
as §2, with “decreased immune response to a bacterial infection.” for “increased expression level of Bak1, Pdcd5, Casp2, Tradd, Trp53inp1 (mouse gene of Tp53inp1), Casp3, or Casp12.”
as §2, with “identified as at risk” for “identified”, “a psychiatric condition.” for “increased expression level of Bak1, Pdcd5, Casp2, Tradd, Trp53inp1 (mouse gene of Tp53inp1), Casp3, or Casp12.”
as §2, with “identified as risk” for “identified”, “stress-induced apoptosis.” for “increased expression level of Bak1, Pdcd5, Casp2, Tradd, Trp53inp1 (mouse gene of Tp53inp1), Casp3, or Casp12.”
(§3) A 70-kilogram human subject is identified as at risk for a disease associated with an increased level of apoptosis. The human subject is administered a dose of 1500 mg of Tempol per day for 180 days. This may be administered in a single dose, or may be administered as a number of smaller doses over a 24-hour period: for example, three 500-mg doses at eight-hour intervals. Following treatment, the serum level of Bak1, Pdcd5, Casp2, Tradd, Trp53inp1 (mouse gene of Tp53inp1), Casp3, or Casp12, is reduced.
as §2, with “identified as at risk of a disease having an” for “identified for”
as §3, with “of Parkinson's” for “for a”, “[…].” for “associated with an increased level of apoptosis.”

[3] = Tempol 5 mg/g of food vs control mice
[4] = Tempol-treated vs control mice, P-value 0.03
[5] = Tempol-treated vs control mice, P-value 0.00
[6] = Tempol-treated vs control mice, P-value 0.01

CC1(C)CC(O)CC(C)(C)N1[O] [Tempol, 4-hydroxy-2,2,6,6-tetramethylpiperidine-1-oxyl]
Pdcd5 expression change, in words (Pdcd5; [3]): statistically significant decrease in expression
Pdcd5 fold change (Pdcd5; [4]): −1.15
Pdcd5 expression, Tempol-treated mice (Pdcd5; age 31 months, Tempol 5 mg/g of food from 14 to 31 months, control mice 2863): 2503
Casp12 expression change, in words (Casp12; [3]): statistically significant decrease in expression
Casp12 fold change (Casp12; Tempol-treated vs control mice, P-value 0.02): −1.61
Casp12 expression, Tempol-treated mice (Casp12; age 31 months, Tempol 5 mg/g of food from 14 to 31 months, control mice 701): 436
Casp2 expression change, in words (Casp2; [3]): statistically significant decrease in expression
Casp2 fold change (Casp2; [4]): −1.20
Casp2 expression, Tempol-treated mice (Casp2; age 31 months, Tempol 5 mg/g of food from 14 to 31 months, control mice 316): 261
Casp3 expression change, in words (Casp3; [3]): statistically significant decrease in expression
Casp3 fold change (Casp3; [5]): −1.47
Casp3 expression, Tempol-treated mice (Casp3; age 31 months, Tempol 5 mg/g of food from 14 to 31 months, control mice 604): 414
Bak1 expression change, in words (Bak1; [3]): statistically significant decrease in expression
Bak1 fold change (Bak1; [6]): −1.15
Bak1 expression, Tempol-treated mice (Bak1; age 31 months, Tempol 5 mg/g of food from 14 to 31 months, control mice 260): 226
Trp53inp1 expression change, in words [1, 3]: statistically significant decrease in expression
Trp53inp1 fold change [1, 5]: −1.33
Trp53inp1 expression, Tempol-treated mice ([1]; age 31 months, Tempol 5 mg/g of food from 14 to 31 months, control mice 1107): 830
Tradd expression change, in words (Tradd; [3]): statistically significant decrease in expression
Tradd fold change (Tradd; [6]): −1.23
Tradd expression, Tempol-treated mice (Tradd; age 31 months, Tempol 5 mg/g of food from 14 to 31 months, control mice 288): 233
serum level of Bak1, Pdcd5, Casp2, Tradd, Trp53inp1, Casp3, or Casp12 following treatment ([2]; Example 2: 70-kilogram human subject with increased expression level of the gene): reduced
serum level of Bak1, Pdcd5, Casp2, Tradd, Trp53inp1, Casp3, or Casp12 following treatment ([2]; Example 3: 70-kilogram human subject with decreased immune response to a bacterial infection): reduced
serum level of Bak1, Pdcd5, Casp2, Tradd, Trp53inp1, Casp3, or Casp12 following treatment ([2]; Example 4: 70-kilogram human subject at risk for a psychiatric condition): reduced
serum level of Bak1, Pdcd5, Casp2, Tradd, Trp53inp1, Casp3, or Casp12 following treatment ([2]; Example 5: 70-kilogram human subject at risk for stress-induced apoptosis): reduced
serum level of Bak1, Pdcd5, Casp2, Tradd, Trp53inp1, Casp3, or Casp12 following treatment ([2]; Example 6: 70-kilogram human subject at risk for a disease associated with an increased level of apoptosis): reduced
serum level of Bak1, Pdcd5, Casp2, Tradd, Trp53inp1, Casp3, or Casp12 following treatment ([2]; Example 7: 70-kilogram human subject at risk of a disease having an increased expression level of the gene): reduced
serum level of Bak1, Pdcd5, Casp2, Tradd, Trp53inp1, Casp3, or Casp12 following treatment ([2]; Example 8: 70-kilogram human subject at risk of Parkinson's disease): reduced
